Data: ChEMBL document CHEMBL1821715, “Synthesis, characterization and pharmacological activity of 4-{[1-substituted aminomethyl-4-arylideneamino-5-sulfanyl-4,5-dihydro-1H-1,2,4-triazol-3-yl]methyl}-2H-1,4-benzothiazin-3(4H)-ones” (2011)

What was measured:
Type in all cases: functional
Rattus norvegicus [1] = test: Analgesic activity in Wistar albino rat assessed as reaction time required for tail flicking at 20 mg/kg after 30 mins by tail-flick method relative to control
Rattus norvegicus [2] = test: Analgesic activity in Wistar albino rat assessed as reaction time required for tail flicking at 20 mg/kg after 90 mins by tail-flick method relative to control
Rattus norvegicus [3] = test: Antiinflammatory activity in Wistar albino rat assessed as reduction of carrageenan-induced paw volume at 20 mg/kg, po administered 30 mins before carrageenan challenge measured after 1 hr relative to control; parameters: scale not given: the % may be the effect or the level left
Rattus norvegicus [4] = test: Analgesic activity in Wistar albino rat assessed as reaction time required for tail flicking at 20 mg/kg after 60 mins by tail-flick method relative to control
Rattus norvegicus [5] = test: Antiinflammatory activity in Wistar albino rat assessed as reduction of carrageenan-induced paw volume at 20 mg/kg, po administered 30 mins before carrageenan challenge measured after 2 hrs relative to control; parameters: scale not given: the % may be the effect or the level left
Rattus norvegicus [6] = test: Antiinflammatory activity in Wistar albino rat assessed as reduction of carrageenan-induced paw volume at 20 mg/kg, po administered 30 mins before carrageenan challenge measured after 0.5 hr relative to control; parameters: scale not given: the % may be the effect or the level left

O=C(O)CN1C(=O)CSc2ccccc21
Time (Rattus norvegicus [1]): 5.775 s
Time (Rattus norvegicus [2]): 6.875 s
Activity (Rattus norvegicus [3]): 30.07%
Time (Rattus norvegicus [4]): 6.5 s
Activity (Rattus norvegicus [5]): 27.93%
Activity (Rattus norvegicus [6]): 38.51%

CN1CCN(Cn2nc(CN3C(=O)CSc4ccccc43)n(/N=C/c3ccccc3)c2=S)CC1
Time (Rattus norvegicus [1]): 3.5 s
Time (Rattus norvegicus [2]): 4.225 s
Activity (Rattus norvegicus [3]): 9.8%
Time (Rattus norvegicus [4]): 4.3 s
Activity (Rattus norvegicus [5]): 10.39%
Activity (Rattus norvegicus [6]): 8.1%

O=C1CSc2ccccc2N1Cc1nn(CN2CCOCC2)c(=S)n1/N=C/c1ccccc1
Time (Rattus norvegicus [1]): 3.175 s
Time (Rattus norvegicus [2]): 3.4 s
Activity (Rattus norvegicus [3]): 10.13%
Time (Rattus norvegicus [4]): 3.375 s
Activity (Rattus norvegicus [5]): 10.39%
Activity (Rattus norvegicus [6]): 5.4%

O=C1CSc2ccccc2N1Cc1nn(CN2CCCCC2)c(=S)n1/N=C/c1ccccc1
Time (Rattus norvegicus [1]): 3.925 s
Time (Rattus norvegicus [2]): 5.5 s
Activity (Rattus norvegicus [3]): 41.18%
Time (Rattus norvegicus [4]): 5.3 s
Activity (Rattus norvegicus [5]): 41.23%
Activity (Rattus norvegicus [6]): 40.21%

CN1CCN(Cn2nc(CN3C(=O)CSc4ccccc43)n(/N=C/c3ccc([N+](=O)[O-])cc3)c2=S)CC1
Time (Rattus norvegicus [1]): 5.475 s
Time (Rattus norvegicus [2]): 6.05 s
Activity (Rattus norvegicus [3]): 40.53%
Time (Rattus norvegicus [4]): 5.975 s
Activity (Rattus norvegicus [5]): 37.34%
Activity (Rattus norvegicus [6]): 33.11%

O=C1CSc2ccccc2N1Cc1nn(CN2CCOCC2)c(=S)n1/N=C/c1ccc([N+](=O)[O-])cc1
Time (Rattus norvegicus [1]): 5.425 s
Time (Rattus norvegicus [2]): 6.025 s
Activity (Rattus norvegicus [3]): 42.16%
Time (Rattus norvegicus [4]): 6.05 s
Activity (Rattus norvegicus [5]): 31.82%
Activity (Rattus norvegicus [6]): 37.84%

O=C1CSc2ccccc2N1Cc1nn(CN2CCCCC2)c(=S)n1/N=C/c1ccc([N+](=O)[O-])cc1
Time (Rattus norvegicus [1]): 5.1 s
Time (Rattus norvegicus [2]): 4.875 s
Activity (Rattus norvegicus [3]): 55.56%
Time (Rattus norvegicus [4]): 5.3 s
Activity (Rattus norvegicus [5]): 58.77%
Activity (Rattus norvegicus [6]): 52.71%

CN1CCN(Cn2nc(CN3C(=O)CSc4ccccc43)n(/N=C/c3ccc(Cl)cc3)c2=S)CC1
Time (Rattus norvegicus [1]): 4.575 s
Time (Rattus norvegicus [2]): 5 s
Activity (Rattus norvegicus [3]): 44.12%
Time (Rattus norvegicus [4]): 5.375 s
Activity (Rattus norvegicus [5]): 42.86%
Activity (Rattus norvegicus [6]): 38.51%

O=C1CSc2ccccc2N1Cc1nn(CN2CCOCC2)c(=S)n1/N=C/c1ccc(Cl)cc1
Time (Rattus norvegicus [1]): 4.8 s
Time (Rattus norvegicus [2]): 4.075 s
Activity (Rattus norvegicus [3]): 32.35%
Time (Rattus norvegicus [4]): 4.875 s
Activity (Rattus norvegicus [5]): 29.55%
Activity (Rattus norvegicus [6]): 28.04%

O=C1CSc2ccccc2N1Cc1nn(CN2CCOCC2)c(=S)n1/N=C/c1ccc(O)cc1
Time (Rattus norvegicus [1]): 4.3 s
Time (Rattus norvegicus [2]): 6 s
Activity (Rattus norvegicus [3]): 45.1%
Time (Rattus norvegicus [4]): 5 s
Activity (Rattus norvegicus [5]): 38.97%
Activity (Rattus norvegicus [6]): 53.38%

CC(C)=CCN1CC[C@]2(C)c3cc(O)ccc3C[C@H]1[C@H]2C [(+)-PENTAZOCINE]
Time (Rattus norvegicus [1]): 6.4 s
Time (Rattus norvegicus [2]): 7.45 s
Time (Rattus norvegicus [4]): 7.175 s

COc1ccc2c(c1)c(CC(=O)O)c(C)n2C(=O)c1ccc(Cl)cc1 [INDOMETHACIN]
Activity (Rattus norvegicus [3]): 70.26%
Activity (Rattus norvegicus [5]): 69.81%
Activity (Rattus norvegicus [6]): 66.89%
